Measurements: US20030232851A1, “Viral treatment” (The Procter & Gamble Company, priority 1999, published 2003)
Several values for one entry are separate records, joined by “and”; a condition that tells them apart may be missing. Equal entries are not always repeated.

Columns and labels:
HIV-1 protease = molecular target: T1, HIV-1 protease (Human immunodeficiency virus type 1 group M subtype B, UniProt P04585); experiment: Protease inhibition assay (fluorometric); type: biochemical; conditions: for Protease Inhibition, sample reading: sample 1, sample 2
T1 construct: precludes use of the fluorometric HIV-1 protease assay; purchased Bachem
Procedure: Protease inhibition is evaluated using a fluorometric method. Enzyme (Bachem) is diluted to 116 μgm/ml in 50 mM NaOAC, 5 mM DTT, 2 mM EDTA, 10% glycerol (pH 5.0) and stored as 10 μl samples at −20° C., HIV protease substrates I (Molecular Probes) is diluted to a working concentration of 0.32 nmoles/μl. Enzyme (20 μl) and drug (20 μl) are added to each well of a microtiter plate as appropriate. Positive and negative controls are evaluated in parallel. Fluorescence is quantitated on Labsystems Fluroskan II using 355 nm/460 nm at 37° C. at time zero and at 30 minute intervals for 2 hours. In instances where autofluorescence precludes use of the fluorometric HIV-1 protease assay or confirmation of a result is required, an HPLC based protease assay can be employed.

HIV-2 virus, CEMROD = experiment: In vitro screening against HIV-2 virus, CEMROD: reverse transcriptase activity; type: cell-based; design: Reverse Transcriptase Activity, samples 1-3 / Reverse Transcriptase Activity, average: unit not given here
Procedure: A microtiter-based reveres transcriptase (RT) reaction is utilized (Buckheit et al (1991) AIDS Research and Human Retroviruses 7:295-302). Tritiated thymidine triphosphate (NEN)(TTP) is resuspended in distilled water at 5 Ci/ml. Poly rA and oligo dT are prepared as a stock solution which is kept at −20° C. The RT reaction buffer is prepared fresh on a daily basis and consists of 125 μl 1M EGTA, 125 μl water, 125 μl Triton X-100, 50 μl Tris (pH 7.4), 50 μl 1 MDDT, and 40 μl 1M MgCl2. These three solutions are mixed together in a ratio of 1 part TTP, 2.5 parts poly rA:oligo dT, 2.5 parts reaction buffer and 4 parts distilled water. Ten microliters of this reaction mixture is placed in a round bottom microtiter place and 15 μl of virus containing supernatant is added and mixed. The plate is incubated at 37° C. for 60 minutes. Following reaction, the reaction volume is spotted onto filter mats, washed 6 times for 5 minutes each in a 5% sodium phosphate buffer, 2 times for 1 minute each in distilled water, 2 times for 1 minute each in 70% ethanol, and then dried. The dried filter mat is placed in a plastic sample bag, Betaplate scintillation fluid is added and the bag is heat sealed. Incorporated radioactivity is quantified utilizing a Wallac Microbeta scintillation counter.

[1] = system: HHV8 cell line, TPA-induced BCBL-1 cells; experiment: Kaposi's Sarcoma (HHV8) in vitro test, DNA copy number; type: cell-based
Procedure: The DNA copy number and the toxicity value were measured and compared with Cidofovir.

vero cells = experiment: Herpes simplex testing: toxicity (TC50); design: unit not given beside the values
[2] = Table 2 duplicate study, 0.32 μg/ml
[3] = Table 2 duplicate study, 1 μg/ml
[4] = Table 2 duplicate study, 1.0 μg/ml
[5] = Table 2 duplicate study, 3.2 μg/ml
[6] = Table 2 duplicate study, 32 μg/ml
[7] = Table 2 duplicate study, 100 μg/ml

c1csc(-c2nc3cccnc3[nH]2)c1 [2-(2-thienyl)-imidazolo [4,5-b]pyridine]
Protease Inhibition, mean (HIV-1 protease; 1 nM): 24.7
Protease Inhibition, sample reading (HIV-1 protease; 1 nM): 27.1 and 22.4
Protease Inhibition, mean (HIV-1 protease; 10 nM): 36.7
Protease Inhibition, sample reading (HIV-1 protease; 10 nM): 33.2 and 40.2
Protease Inhibition, mean (HIV-1 protease; 100 nM): 76.1
Protease Inhibition, sample reading (HIV-1 protease; 100 nM): 75.4 and 76.8
Protease Inhibition, mean (HIV-1 protease; 1000 nM): 213.8
Protease Inhibition, sample reading (HIV-1 protease; 1000 nM): 219.4 and 208.2
Reverse Transcriptase Activity, % virus control (HIV-2 virus, CEMROD; Table 1, 0.32 μg/ml): 119%
Reverse Transcriptase Activity, average (HIV-2 virus, CEMROD; Table 1, 0.32 μg/ml): 5947
Reverse Transcriptase Activity, samples 1-3 (HIV-2 virus, CEMROD; Table 1, 0.32 μg/ml): 5878 and 5529 and 6435
Reverse Transcriptase Activity, % virus control (HIV-2 virus, CEMROD; Table 1, 1 μg/ml): 103.8%
Reverse Transcriptase Activity, average (HIV-2 virus, CEMROD; Table 1, 1 μg/ml): 5188
Reverse Transcriptase Activity, samples 1-3 (HIV-2 virus, CEMROD; Table 1, 1 μg/ml): 5002 and 5086 and 5476
Reverse Transcriptase Activity, % virus control (HIV-2 virus, CEMROD; Table 1, 1.0 μg/ml): 48.1%
Reverse Transcriptase Activity, average (HIV-2 virus, CEMROD; Table 1, 1.0 μg/ml): 2403
Reverse Transcriptase Activity, samples 1-3 (HIV-2 virus, CEMROD; Table 1, 1.0 μg/ml): 2812 and 2206 and 2190
Reverse Transcriptase Activity, % virus control (HIV-2 virus, CEMROD; Table 1, 3.2 μg/ml): 84.0%
Reverse Transcriptase Activity, average (HIV-2 virus, CEMROD; Table 1, 3.2 μg/ml): 4201
Reverse Transcriptase Activity, samples 1-3 (HIV-2 virus, CEMROD; Table 1, 3.2 μg/ml): 4005 and 4017 and 4580
Reverse Transcriptase Activity, % virus control (HIV-2 virus, CEMROD; Table 1, 32 μg/ml): 8.1%
Reverse Transcriptase Activity, average (HIV-2 virus, CEMROD; Table 1, 32 μg/ml): 407
Reverse Transcriptase Activity, samples 1-3 (HIV-2 virus, CEMROD; Table 1, 32 μg/ml): 382 and 390 and 450
Reverse Transcriptase Activity, % virus control (HIV-2 virus, CEMROD; Table 1, 100 μg/ml): 1.4%
Reverse Transcriptase Activity, average (HIV-2 virus, CEMROD; Table 1, 100 μg/ml): 72
Reverse Transcriptase Activity, samples 1-3 (HIV-2 virus, CEMROD; Table 1, 100 μg/ml): 80 and 68
Reverse Transcriptase Activity, % virus control (HIV-2 virus, CEMROD; [2]): 116.6%
Reverse Transcriptase Activity, average (HIV-2 virus, CEMROD; [2]): 5616
Reverse Transcriptase Activity, samples 1-3 (HIV-2 virus, CEMROD; [2]): 4758 and 5725 and 6365
Reverse Transcriptase Activity, % virus control (HIV-2 virus, CEMROD; [3]): 121.1%
Reverse Transcriptase Activity, average (HIV-2 virus, CEMROD; [3]): 5833
Reverse Transcriptase Activity, samples 1-3 (HIV-2 virus, CEMROD; [3]): 4251 and 6264 and 6984
Reverse Transcriptase Activity, % virus control (HIV-2 virus, CEMROD; [4]): 51.1%
Reverse Transcriptase Activity, average (HIV-2 virus, CEMROD; [4]): 2463
Reverse Transcriptase Activity, samples 1-3 (HIV-2 virus, CEMROD; [4]): 2776 and 2531 and 2081
Reverse Transcriptase Activity, % virus control (HIV-2 virus, CEMROD; [5]): 100.0%
Reverse Transcriptase Activity, average (HIV-2 virus, CEMROD; [5]): 4819
Reverse Transcriptase Activity, samples 1-3 (HIV-2 virus, CEMROD; [5]): 5050 and 5352 and 4054
Reverse Transcriptase Activity, % virus control (HIV-2 virus, CEMROD; [6]): 4.1%
Reverse Transcriptase Activity, average (HIV-2 virus, CEMROD; [6]): 197
Reverse Transcriptase Activity, samples 1-3 (HIV-2 virus, CEMROD; [6]): 173 and 177 and 241
Reverse Transcriptase Activity, % virus control (HIV-2 virus, CEMROD; [7]): 0.9%
Reverse Transcriptase Activity, average (HIV-2 virus, CEMROD; [7]): 44
efficacy in treating HIV (in words) (HIV-2 virus, CEMROD; at the higher concentrations): shows efficacy
DNA Copy Number, % virus control ([1]; 0.64 μM): 97.2%
DNA Copy Number, average ([1]; 0.64 μM): 14122.1 per 3 μl
DNA Copy Number, samples 1-3 ([1]; 0.64 μM): 16524.7 per 3 μl and 16524.9 per 3 μl and 12316.8 per 3 μl
DNA Copy Number, % virus control ([1]; 2 μM): 94.0%
DNA Copy Number, average ([1]; 2 μM): 13653.8 per 3 μl
DNA Copy Number, samples 1-3 ([1]; 2 μM): 13427.5 per 3 μl and 11819.4 per 3 μl and 15714.5 per 3 μl
DNA Copy Number, % virus control ([1]; 6.4 μM): 95.5%
DNA Copy Number, average ([1]; 6.4 μM): 13876.4 per 3 μl
DNA Copy Number, samples 1-3 ([1]; 6.4 μM): 11795.6 per 3 μl and 15297.5 per 3 μl and 14536.1 per 3 μl
DNA Copy Number, % virus control ([1]; 20 μM): 77.9%
DNA Copy Number, average ([1]; 20 μM): 11321.8 per 3 μl
DNA Copy Number, % virus control ([1]; 64 μM): 2.9%
DNA Copy Number, average ([1]; 64 μM): 427.3 per 3 μl
DNA Copy Number, % virus control ([1]; 200 μM): 13.9%
DNA Copy Number, average ([1]; 200 μM): 2020.8 per 3 μl
DNA Copy Number, samples 1-3 ([1]; 200 μM): 1680.4 per 3 μl and 2041.2 per 3 μl and 2340.8 per 3 μl
IC50 ([1]; Human gammaherpesvirus 8, BCBL1): 36.4 µM
TC50 (vero cells): 82.8
